What was measured:
LasR = biological target: T1, LasR (Pseudomonas aeruginosa, UniProt P25084); assay: E. coli LasR bioreporter (Para-lasR, PlasI-lacZ), β-galactosidase readout; type: cell-based; conditions: for IC50: IC50 ± CI, LasR reporter, competed against 100 nM 3OC12-HSL, 95% confidence interval in parentheses; for fold lower concentration inhibiting LasR-specific reporter than constitutive reporter: IC50 constitutive reporter vs LasR reporter
T1 construct: expressed in transfected cells; host or cells: E. coli DH5α carrying pJN105-L and pSC11-L
Source text: (§1) To characterize compounds for their potential activity as LasR antagonists, we used heterologous E. coli, which enables LasR to be isolated from other host regulation effects. We used an E. coli strain expressing LasR from an arabinose-inducible promoter (Para-lasR) on plasmid pJN105-L and a second plasmid with the LasR-inducible lasI promoter fused to a promoterless lacZ reporter (PlasI-lacZ) on plasmid pSC11-L (Fig. 2A). […] As a control, we also constructed an E. coli strain carrying a plasmid with lacZ expressed from the constitutive aphA-3 promoter ([29], [30]), pVT19.
(§2) To assess LasR activation of lasR expression in recombinant E. coli, we used E. coli strain DH5α carrying two plasmids; plasmid pJN105-L ([50]) with an arabinose-inducible P. aeruginosa lasR and plasmid pSC11-L ([51]) with the promoter of the LasR-responsive gene lasI fused to a lacZ reporter. For some studies, pJN105-L was replaced with derivatives of this plasmid encoding LasR mutants with single amino acid substitutions ([33]). To assess RhlR activation of rhlR expression in recombinant E. coli, we used E. coli DH5α with plasmid pECP61.5 ([38]) with an IPTG-inducible ptac-rhlR and an RhlR-responsive gene rhlA fused to the lacZ reporter. For constitutive expression of the lacZ reporter, we used E. coli DH5α with plasmid pVT19, which has the lacZ gene fused to the constitutive aphA-3 promoter. To construct pVT19, the constitutive aphA-3 promoter ([29], [30]) was amplified from a pTCV-lac derivative using primers Vlac1 and Vlac2 ([30]). The resulting amplicon was digested with EcoRI and BamHI and ligated into similarly digested pKS12A ([52]). The resulting plasmid with the aphA-3 promoter transcriptionally fused to lacZ was designated pVT19. For constitutive expression of the gfp reporter, we used E. coli DH5α with plasmid pUC18T-mini-Tn7T-Gm-gfpmut3 ([53]).
(§3) To assess LasR activation of lasR expression in recombinant E. coli, overnight cultures of E. coli DH5α pSC11-L and pJN105-L were diluted 1:100 into LB containing selection antibiotics gentamicin and ampicillin in 10 mL cultures. When the cultures reached an OD600 of 0.2–0.3, L-(+)-arabinose was added to a final concentration of 0.25%. […] Aliquots (5 µL) of increasing concentrations of inhibitor test compound stock solution in DMSO were then added to the designated micro centrifuge tubes containing culture. Tubes containing E. coli with just signal and DMSO were included as controls. After 3 h at 37°C with shaking, OD600 was measured using a plate reader, and β-galactosidase activity was measured as described above.

RhlR = biological target: T2, RhlR (Pseudomonas aeruginosa, UniProt P54292); assay: E. coli RhlR bioreporter (pECP61.5, rhlA-lacZ), β-galactosidase readout; type: cell-based
T2 construct: expressed in transfected cells; host or cells: E. coli DH5α carrying pECP61.5
Source text: (§4) To test the ability of our set of benzaldehydes and related compounds to antagonize RhlR, we generated dose-response curves with these compounds using an E. coli RhlR reporter strain (Fig. 6; Table 2). This strain is analogous to the LasR reporter above, but it carries plasmid pECP61.5 expressing RhlR from the isopropyl β-D-1-thiogalactopyranoside (IPTG)-inducible […] promoter as well as the rhlA-lacZ reporter ([38]). We also utilized our constitutive lacZ reporter plasmid pVT19 to generate dose-response curves using the RhlR assay conditions (Fig. 6; Table 2). […] With the constitutive lacZ reporter, there was a similar spread in potencies for our compounds, with ortho-vanillin having the lowest IC50 and salicylic acid as the highest. However, the IC50 for ortho-vanillin was fivefold lower with RhlR than with the constitutive lacZ reporter. There were also no observed effects of ortho-vanillin on growth until concentrations at which there was >50% antagonism of the RhlR reporter, and there was no antagonism of the constitutive lacZ reporter until concentrations >500 µM.
as §2
(§5) To assess RhlR activation of rhlR expression in recombinant E. coli, overnight cultures of E. coli DH5α pECP61.5 grown at 30°C in A medium containing antibiotic selection (ampicillin) and IPTG to induce RhlR expression were diluted to an OD600 of 0.1, and 1 mL was added to culture tubes containing dried C4-HSL. Aliquots (5 µL) of DMSO containing increasing concentrations of inhibitor test compound or DMSO with no test compound were added to the designated Eppendorf tubes containing culture. Tubes containing E. coli with signal and DMSO were included as vehicle control. After 5 h at 30°C with shaking, OD600 was measured using a plate reader, and β-galactosidase activity was measured as described above.

[1] = tested on: constitutive aphA-3-lacZ reporter; assay: E. coli constitutive aphA-3-lacZ reporter (pVT19), RhlR reporter conditions; type: cell-based, Escherichia coli; conditions: for IC50: Escherichia coli
Source text: as §4, §2, §5
(§6) Experiments with the LasR mutants and the constitutive lacZ expression plasmid pVT19 or constitutive gfp expression plasmid pUC18T-mini-Tn7T-Gm-gfpmut3 were carried out identically as described above for the LasR or RhlR bioreporter experiments. Results with the […] constitutive reporter strain were different for the LasR vs RhlR bioreporter protocols likely due to differences in growth conditions (temperature and/or growth media).

[2] = tested on: constitutive aphA-3-lacZ reporter; assay: E. coli constitutive aphA-3-lacZ reporter (pVT19), LasR reporter conditions; type: cell-based; conditions: Escherichia coli, read-out: IC50 ± CI, Constitutive reporter
Source text: as §1, §2, §3, §6

[3] = tested on: constitutive GFP reporter; assay: E. coli constitutive GFP reporter (pUC18T-mini-Tn7T-Gm-gfpmut3); type: cell-based, Escherichia coli
Source text: To test whether these effects were specific to the lacZ reporter or general to other reporters, we generated an orsellinaldehyde dose-response curve using a strain constitutively expressing GFP (E. coli carrying a constitutive GFP-producing plasmid pUC18T-mini-Tn7T-Gm-gfpmut3).
as §2, with “The resulting plasmid with the aphA-3 promoter transcriptionally fused to lacZ was designated pVT19. For constitutive expression of the gfp reporter, we used E. coli DH5α with plasmid pUC18T-mini-Tn7T-Gm-gfpmut3 ([53]).” left out

E. coli = assay: Growth (OD600) of E. coli reporter strain, LasR reporter conditions; type: cell-based, Escherichia coli; conditions: at the highest concentrations
Experimental: as §3

LasR mutants [4] = biological target: T3, LasR mutants (Pseudomonas aeruginosa, UniProt P25084, S129A); assay: E. coli LasR mutant lasI-lacZ reporters (W60F, Y56F, T75V, Y93F, S129A); type: cell-based; conditions: S129A mutant
T3 construct: expressed in transfected cells; host or cells: E. coli DH5α carrying pSC11-L and a pJN105-L mutant analog (pJG044, pJG008, pJG011, pJG012 or pJG014)
Source text: (§7) To examine these putative interactions between ortho-vanillin and LasR, we determined the activity of ortho-vanillin in several LasR mutants. In prior studies in our laboratories, a set of LasR mutants were generated in which residues within the ligand-binding pocket were mutated to a different residue of similar steric size but without the capability to hydrogen bond (e.g., Tyr → Phe). These mutants were introduced into E. coli to generate lasI-lacZ reporters analogous to the wild-type LasR reporter above (see Table S1 and Materials and Methods). From that set, we selected five LasR mutant reporters to test ortho-vanillin (W60F, Y56F, T75V, Y93F, and S129A), which included the Thr75 and Ser129 residues predicted to be important for ortho-vanillin interaction in our in silico study. […] As a control, we also tested the ability of V-06–018 to antagonize the LasR S129A mutant. We used the same approach to test the ability of […] to antagonize LasR and the LasR S129A mutant. […] Results from one of the concentrations (100 µM) are shown instead.
as §2, with “The resulting amplicon was digested with EcoRI and BamHI and ligated into similarly digested pKS12A ([52]). The resulting plasmid with the aphA-3 promoter transcriptionally fused to lacZ was designated pVT19. For constitutive expression of the gfp reporter, we used E. coli DH5α with plasmid pUC18T-mini-Tn7T-Gm-gfpmut3 ([53]).” left out

LasR mutants [5] = assay: as above; type: cell-based, Pseudomonas aeruginosa; conditions: W60F, Y56F, T75V, Y93F, S129A; competed against 3OC12-HSL at EC50 of each mutant
Source text: as §7
as §2, with “The resulting amplicon was digested with EcoRI and BamHI and ligated into similarly digested pKS12A ([52]). The resulting plasmid with the aphA-3 promoter transcriptionally fused to lacZ was designated pVT19. For constitutive expression of the gfp reporter, we used E. coli DH5α with plasmid pUC18T-mini-Tn7T-Gm-gfpmut3 ([53]).” left out

[6] = IC50 ± CI, RhlR reporter, competed against 400 nM C4-HSL, 95% confidence interval in parentheses
[7] = read-out: IC50 ± CI, Constitutive reporter

T2 sequence (P54292 whole entry): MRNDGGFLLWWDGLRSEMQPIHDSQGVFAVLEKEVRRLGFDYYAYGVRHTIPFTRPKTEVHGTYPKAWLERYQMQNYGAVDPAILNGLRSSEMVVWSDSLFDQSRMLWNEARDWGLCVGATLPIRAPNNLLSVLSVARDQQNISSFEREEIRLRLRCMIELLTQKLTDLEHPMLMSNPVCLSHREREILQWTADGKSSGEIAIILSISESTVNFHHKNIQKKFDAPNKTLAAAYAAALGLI
T1 sequence (P25084 whole entry): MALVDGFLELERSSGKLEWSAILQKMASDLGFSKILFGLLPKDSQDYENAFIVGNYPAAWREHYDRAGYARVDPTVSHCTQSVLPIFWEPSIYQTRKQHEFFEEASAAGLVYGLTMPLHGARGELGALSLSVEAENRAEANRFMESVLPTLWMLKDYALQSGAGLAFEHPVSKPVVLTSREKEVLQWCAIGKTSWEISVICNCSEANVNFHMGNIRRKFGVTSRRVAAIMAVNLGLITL
T3 sequence (P25084 whole entry S129A): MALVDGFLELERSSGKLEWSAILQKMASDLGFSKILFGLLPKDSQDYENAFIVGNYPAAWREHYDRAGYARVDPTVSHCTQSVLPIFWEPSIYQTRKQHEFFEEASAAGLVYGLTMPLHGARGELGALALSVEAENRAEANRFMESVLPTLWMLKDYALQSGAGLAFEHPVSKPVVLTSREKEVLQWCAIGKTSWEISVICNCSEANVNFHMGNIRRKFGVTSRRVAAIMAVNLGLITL

SMILES	IC50 (LasR) [mM]	IC50 (RhlR; [6]) [mM]	IC50 [1, 7] [mM]	IC50 [2] [mM]	other results
COc1ccc(C=O)c(O)c1 [2-hydroxy-4-methoxybenzaldehyde]	1.04	0.458	1.36	1.95	–
Cc1ccc(O)c(C=O)c1 [2-hydroxy-5-methylbenzaldehyde]	1.5	1.08	1.79	2.02	fold lower concentration inhibiting LasR-specific reporter than constitutive reporter (LasR): 1.3 fold
O=C/C=C/c1ccccc1 [Cinnamaldehyde]	0.851	1.31	2.85	1.46	–
Cc1cc(O)cc(O)c1C=O [Orsellinaldehyde]	2.37	0.956	2.75	2.31	calculated LD50 of orsellinaldehyde with GFP ([3]; E. coli constitutive GFP reporter, Fig. S1 legend): 1057 µM; IC50 ([3]; Escherichia coli, read-out: IC50, constitutive GFP reporter): 1.06 mM; reduction of growth yield (E. coli): 10%–20%
O=C(O)c1ccccc1O [Salicylic acid, reference compound]	–	10	6.26	3.65	IC50 (RhlR; IC50, RhlR reporter, competed against C4-HSL): ~10 mM
CCCCCCCCCC(=O)CC(=O)Nc1ccccc1 [V-06–018]	–	–	–	–	antagonism of LasR S129A mutant compared with wild-type LasR (LasR mutants [4]; competed against 3OC12-HSL at its EC50): significantly less active; IC50, LasR S129A mutant (LasR mutants [4]; insufficient antagonism): could not be determined
COc1cccc(C=O)c1O [ortho-Vanillin]	0.437	0.151	0.872	1.26	difference in IC50 with varying 3OC12-HSL concentration (competition test) (LasR; 3OC12-HSL at […] nM, 1 µM and 10 µM, P > 0.07): not significant; fold lower concentration inhibiting LasR-specific reporter than constitutive reporter (LasR): threefold; change in potency with varying C4-HSL concentration (competition test) (RhlR; C4-HSL at 400 nM, 10 µM and 100 µM): significant C4-HSL concentration-dependent decrease in the potency; fold lower IC50 with RhlR than with constitutive lacZ reporter (RhlR; IC50 constitutive lacZ reporter vs RhlR reporter): fivefold; IC50 ([1]; read-out: IC50, Constitutive reporter, Hill slope set at 1.0): 0.774 mM; concentration until which there was no antagonism of the constitutive lacZ reporter ([1]; RhlR reporter conditions): > 500 µM; antagonism of LasR mutants compared with wild-type LasR (LasR mutants [5]): indistinguishable from that of the wild-type LasR
